In PubChem BioAssay (NCI) one finds GI50 and TGI data, which are given here for nine compounds.

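Dose response: 5 concentrations. Exposure: 48 h. Format: 96-well plates. Endpoint: linear interpolation; highest concentration if not reached. GI50 marks 50% less growth. TGI: concentration producing complete growth inhibition.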

Among the test systems are NCI-H460 lung; DU-145 prostate; UO-31 renal; OVCAR-3 ovarian; OVCAR-8 ovarian; NCI-H522 lung; NCI/ADR-RES ovarian; SK-MEL-2 melanoma; SR leukemia; MDA-MB-435.
Common to all, as to experiment: growth of human tumour cells (NCI), 48 h

In the case of `C[C@]12CC[C@@H]3c4cc(OC(F)F)c(O)cc4CC[C@H]3[C@@H]1CC[C@@H]2OS(N)(=O)=O`, the GI50 with NCI-H460 lung is 0.422 µM; in the assay on DU-145 prostate, 1.55 µM; in the assay on UO-31 renal, 1.11 µM; with OVCAR-3 ovarian it was 0.365 µM; in the assay on OVCAR-8 ovarian, 1.55 µM; in the assay on NCI-H522 lung, 0.324 µM. The results for the GI50 in the assay with NCI/ADR-RES ovarian, in the assay with SK-MEL-2 melanoma and in the assay with SR leukemia were 0.484 µM, 0.88 µM and 0.422 µM, respectively. In addition, the TGI in the assay on NCI-H460 lung is 15.4 µM; with DU-145 prostate it was above 100 µM; in the assay with UO-31 renal it was 37.6 µM; in the assay on OVCAR-3 ovarian, 16.6 µM; with OVCAR-8 ovarian, 68.1 µM; with NCI-H522 lung, 18.4 µM. Further, the TGI in the assay on NCI/ADR-RES ovarian was 25.3 µM; in the assay on SK-MEL-2 melanoma it was 55.8 µM; with SR leukemia it was above 100 µM.
With `COc1cc(/C=C2\C[C@H]3[C@@H]4CC=C5C[C@@H](O)CC[C@]5(C)[C@H]4CC[C@]3(C)[C@H]2O)ccc1OCCN1CCCC1`, the GI50 was 13.5 µM in the assay on NCI-H460 lung; 5.04 µM with DU-145 prostate; 10.3 µM in the assay with UO-31 renal; 15.4 µM with OVCAR-3 ovarian; 13.5 µM with OVCAR-8 ovarian; 10.7 µM in the assay with MDA-MB-435. Moreover, the results for the GI50 in the assay on NCI-H522 lung, in the assay with NCI/ADR-RES ovarian and in the assay on SK-MEL-2 melanoma were 18 µM, 12.6 µM and 16.4 µM, respectively. The TGI with NCI-H460 lung amounted to 36.2 µM; in the assay on DU-145 prostate, 14.4 µM; in the assay with UO-31 renal it was 22.4 µM; in the assay with OVCAR-3 ovarian it was 32 µM; in the assay with OVCAR-8 ovarian, 27.2 µM; in the assay with MDA-MB-435, 28.2 µM. Also, the TGI in the assay with NCI-H522 lung was above 50 µM; with NCI/ADR-RES ovarian, 34.7 µM; in the assay with SK-MEL-2 melanoma it was above 50 µM.
With `COc1ccc2sc3cccc(NCCN(C)C)c3c(=O)c2c1`, the GI50 in the assay on NCI-H460 lung is 2.57 µM; in the assay with DU-145 prostate, 4.02 µM; with UO-31 renal, 2.06 µM; in the assay on OVCAR-3 ovarian it was 4.65 µM; in the assay on OVCAR-8 ovarian, 3.3 µM; in the assay on MDA-MB-435, 2.03 µM. The GI50 was 2.79 µM in the assay with NCI-H522 lung, 2.98 µM in the assay on NCI/ADR-RES ovarian and 2.29 µM in the assay on SR leukemia. The TGI in the assay on NCI-H460 lung turned out to be 6.22 µM; with DU-145 prostate it was 13.5 µM; with UO-31 renal it was 6.97 µM; in the assay with OVCAR-3 ovarian, 16.5 µM; in the assay with OVCAR-8 ovarian, 12.5 µM; in the assay on MDA-MB-435, 5.07 µM. The TGI in the assay with NCI-H522 lung came out at 10.1 µM; in the assay with NCI/ADR-RES ovarian, 11.3 µM; with SR leukemia, 5.86 µM.
For `CC[C@H]1CN2CCc3cc(OC)c(OC)cc3C2C[C@@H]1CC1NCCc2cc(OC)c(OC)cc21` (stereo partly drawn), the TGI with NCI-H460 lung was determined as 0.112 µM; in the assay on DU-145 prostate it was 0.105 µM; in the assay with OVCAR-3 ovarian it was 0.197 µM; in the assay with OVCAR-8 ovarian, 0.18 µM; in the assay on MDA-MB-435, 0.112 µM; in the assay on NCI-H522 lung, 0.0354 µM. Further, the TGI stood at 1.19 µM in the assay with NCI/ADR-RES ovarian and 0.0542 µM in the assay on SK-MEL-2 melanoma. For the same compound, the GI50 is 0.0161 µM in the assay on MDA-MB-435 and 0.0127 µM in the assay with NCI-H522 lung.
As for `Nc1cc(F)ccc1CC(=O)O`, the TGI in the assay with DU-145 prostate, in the assay with UO-31 renal, in the assay with OVCAR-8 ovarian, in the assay on MDA-MB-435, in the assay on NCI-H522 lung and with NCI/ADR-RES ovarian was above 100 µM in each case. The TGI in the assay with SK-MEL-2 melanoma and in the assay with SR leukemia was above 100 µM in each case.
For `O=C1c2[nH]cc(CNC3CN4CCC3CC4)c2C(=O)c2c1c(O)c1ccccc1c2O` (stereo not drawn), the GI50 was 0.714 µM in the assay on DU-145 prostate; 3.66 µM in the assay on UO-31 renal; 1.01 µM in the assay on OVCAR-3 ovarian; 17.6 µM in the assay with OVCAR-8 ovarian; 1.4 µM in the assay with MDA-MB-435; 2.08 µM in the assay with NCI/ADR-RES ovarian. Also, in the assay on SK-MEL-2 melanoma, the GI50 is 4.02 µM. Further, the TGI was 7.21 µM in the assay on DU-145 prostate; 21.4 µM in the assay on UO-31 renal; 2.22 µM in the assay with OVCAR-3 ovarian; above 100 µM in the assay on OVCAR-8 ovarian; 2.76 µM in the assay on MDA-MB-435; 6.4 µM with NCI/ADR-RES ovarian. Moreover, in the assay on SK-MEL-2 melanoma, the TGI worked out at 18.6 µM.
With `NCCCNc1nc2ccccc2c2c(=O)c3cc(F)cc(F)c3sc12`, the GI50 in the assay on NCI-H460 lung is 1.58 µM; with DU-145 prostate it was 1.71 µM; in the assay with UO-31 renal it was 1.48 µM; with OVCAR-3 ovarian it was 1.72 µM; with OVCAR-8 ovarian, 2.1 µM; with MDA-MB-435, 1.63 µM. Further, the GI50 with NCI/ADR-RES ovarian was 1.81 µM; with SK-MEL-2 melanoma it was 2.67 µM. Besides, the TGI came to 3.14 µM in the assay with NCI-H460 lung; 3.19 µM in the assay on DU-145 prostate; 2.88 µM in the assay on UO-31 renal; 3.19 µM in the assay with OVCAR-3 ovarian; 5.14 µM in the assay with OVCAR-8 ovarian; 3.02 µM with MDA-MB-435. Besides, the TGI in the assay on NCI/ADR-RES ovarian was 3.69 µM; in the assay on SK-MEL-2 melanoma it was 7.04 µM.
Turning to `O=c1cc(-c2ccccc2)oc2ccc(OC/C(=N/O)c3ccccc3)cc12`, the GI50 in the assay with NCI-H460 lung was 1.97 µM; with DU-145 prostate, 1.73 µM; in the assay on UO-31 renal, 4.34 µM; in the assay on OVCAR-3 ovarian, 1.23 µM; in the assay on OVCAR-8 ovarian, 3.82 µM; in the assay on NCI-H522 lung it was 2.88 µM. Also, the figures for the GI50 in the assay on NCI/ADR-RES ovarian, in the assay on SK-MEL-2 melanoma and with SR leukemia were 3.3 µM, 29.6 µM and 1.73 µM, respectively. The TGI in the assay on NCI-H460 lung is 16.9 µM; with DU-145 prostate, above 50 µM; in the assay on UO-31 renal it was above 50 µM; with OVCAR-3 ovarian, 3.93 µM; with OVCAR-8 ovarian, above 50 µM; with NCI-H522 lung, above 50 µM. The TGI in the assay with NCI/ADR-RES ovarian, with SK-MEL-2 melanoma and in the assay with SR leukemia was above 50 µM in each case.
`COC1C(CO)OC(n2c3ccccc3c3c4c(c5c6ccccc6[nH]c5c32)C(=O)NC4=O)C(O)C1O` (stereo not drawn): the GI50 in the assay on NCI-H460 lung is 0.848 µM; with DU-145 prostate, 0.0439 µM; in the assay with UO-31 renal, 0.173 µM; in the assay on OVCAR-3 ovarian, 0.0785 µM; in the assay with OVCAR-8 ovarian, 0.0327 µM; in the assay with MDA-MB-435, 0.0633 µM. Besides, the GI50 in the assay on NCI-H522 lung was below 0.01 µM; in the assay with NCI/ADR-RES ovarian, 1.37 µM; in the assay with SK-MEL-2 melanoma, 0.234 µM. Also, the TGI with NCI-H460 lung amounted to 6.61 µM; with DU-145 prostate, 0.572 µM; in the assay on UO-31 renal it was 0.676 µM; in the assay with OVCAR-3 ovarian it was 0.369 µM; with OVCAR-8 ovarian, 1.48 µM; in the assay with MDA-MB-435, 0.901 µM. For the same compound, the TGI in the assay on NCI-H522 lung was 0.153 µM; in the assay on NCI/ADR-RES ovarian, above 43.7 µM; with SK-MEL-2 melanoma, 0.856 µM.
